Reference: patent US9713616B2, “Pharmaceutical compositions comprising L-leucovorin” (Spectrum Pharmaceuticals, Inc., priority 2012, dated 2017)

Tests used:
Assay type in all cases: physicochemical
[1] = Example 1: dissolved concentration after about one hour of sonication, then stirring at 5° C.; conditions: sonicated about one hour, stirred at 5° C.
Procedure: L-leucovorin calcium (Merck) or racemic leucovorin calcium (Sigma) was added to water or aqueous sodium chloride (0.83%) and sonicated for about one hour. The mixtures were then stirred for about 20 hours at 5° C. The concentration of dissolved L-leucovorin calcium or racemic leucovorin calcium was determined at 15 min., 30 min., 1 hour, and 20 hours after sonication began.

[2] = Example 4: dissolved concentration after 1 hour of sonication, then stirring at 25° C.; conditions: sonicated 1 hour, stirred at 25° C.
Procedure: L-leucovorin calcium (Merck) or racemic leucovorin calcium (Sigma) was added to water or aqueous sodium chloride (0.83%) and sonicated for 1 hour. The mixture was then stirred for an additional 19 hours 25° C. The concentration of dissolved L-leucovorin calcium or racemic leucovorin calcium was determined at 15 min., 30 min., 1 hour, or 20 hours after stirring began.

[3] = Example 5: dissolved concentration after sonication at 40° C. for about half an hour, then stirring at 25° C. for 20 hours; conditions: sonicated at 40° C. about half an hour, stirred at 25° C.
Procedure: L-leucovorin calcium (Merck) or racemic leucovorin calcium (USP) was added to water or aqueous sodium chloride (0.83%) and sonicated at 40° C. for about half an hour. The mixture was then stirred at 25° C. for 20 hours. The concentration of dissolved L-leucovorin calcium or racemic leucovorin calcium was determined at two hours and 20 hours.

[4] = Example 2: dissolved concentration after sonication at 40° C., then stirring at 5° C. for 20 hours; conditions: sonicated at 40° C., stirred at 5° C.
Procedure: L-leucovorin calcium (Merck) or racemic leucovorin calcium (USP) was added to water or aqueous sodium chloride (0.83%) and sonicated at 40° C. to dissolve the L-leucovorin calcium or racemic leucovorin calcium. The solutions were then stirred at 5° C. for 20 hours. The concentration of dissolved L-leucovorin calcium or racemic leucovorin calcium was determined at 2 hours and 20 hours after stirring began.

[5] = Example 3: dissolved concentration after sonication at 40° C., stirring at 5° C., nitrogen purge and sealed vial at 2 hours; conditions: sonicated at 40° C., stirred at 5° C.
Procedure: L-leucovorin calcium (Merck) or racemic leucovorin (USP) calcium was added to water or aqueous sodium chloride (0.83%) and sonicated at 40° C. to dissolve the L-leucovorin calcium or racemic leucovorin calcium. The solutions were then stirred at 5° C. for 15 hours. At 2 hours, the solutions were purged with nitrogen gas and placed in a sealed vial. The concentration of dissolved L-leucovorin calcium or racemic leucovorin calcium was determined at two hours and 15 hours after sonication began.

[6] = Example 6: dissolved concentration after sonication at 40° C. for one hour, stirring at 25° C., nitrogen purge and sealed vial after 2 hours; conditions: sonicated at 40° C. one hour, stirred at 25° C.
Procedure: L-leucovorin calcium (Merck) or racemic leucovorin (USP) calcium was added to water or aqueous sodium chloride (0.83%) and sonicated at 40° C. for one hour to dissolve the L-leucovorin calcium or racemic leucovorin calcium. The solutions were then stirred at 25° C. for an additional hour. After 2 hours, the solutions were purged with nitrogen and placed in a sealed vial. The mixtures were then stirred for an additional 18 hours. The concentration of dissolved L-leucovorin calcium or racemic leucovorin calcium was determined at two hours and 20 hours after sonication began.

Row | SMILES | Assay (concentration of dissolved compound) ([1]; H2O, 15 min.) | Assay (concentration of dissolved compound) ([1]; H2O, 30 min.) | Assay (concentration of dissolved compound) ([1]; H2O, 1 hr) | Assay (concentration of dissolved compound) ([1]; H2O, 20 hrs) | Assay (concentration of dissolved compound) ([1]; NaCl (0.83%), 15 min.) | Assay (concentration of dissolved compound) ([1]; NaCl (0.83%), 30 min.) | Assay (concentration of dissolved compound) ([1]; NaCl (0.83%), 1 hr) | Assay (concentration of dissolved compound) ([1]; NaCl (0.83%), 20 hrs) | Assay (concentration of dissolved compound) ([2]; H2O, 15 min.) | Assay (concentration of dissolved compound) ([2]; H2O, 30 min.) | Assay (concentration of dissolved compound) ([2]; H2O, 1 hr) | Assay (concentration of dissolved compound) ([2]; H2O, 20 hrs) | Assay (concentration of dissolved compound) ([2]; NaCl (0.83%), 15 min.) | Assay (concentration of dissolved compound) ([2]; NaCl (0.83%), 30 min.) | Assay (concentration of dissolved compound) ([2]; NaCl (0.83%), 1 hr) | Assay (concentration of dissolved compound) ([2]; NaCl (0.83%), 20 hrs) | Assay (concentration of dissolved compound) ([3]; H2O, 20 hrs) | Assay (concentration of dissolved compound) ([3]; NaCl (0.83%), 20 hrs) | Assay (concentration of dissolved compound) ([4]; H2O, 20 hrs) | Assay (concentration of dissolved compound) ([4]; NaCl (0.83%), 20 hrs) | also measured
1 | Nc1nc(=O)c2c([nH]1)NCC(CNc1ccc(C(=O)N[C@@H](CCC(=O)[O-])C(=O)[O-])cc1)N2C=O.[Ca+2] (mixture of isomers) [Sigma Leucovorin Calcium, racemic leucovorin calcium] | 16.7 mg/mL | 22.0 mg/mL | 15.8 mg/mL | 3.3 mg/mL | 22.6 mg/mL | 22.9 mg/mL | 23.2 mg/mL | 7.4 mg/mL | 52.9 mg/mL | 53.3 mg/mL | 50.1 mg/mL | 9.0 mg/mL | 42.1 mg/mL | 41.9 mg/mL | 39.6 mg/mL | 14.2 mg/mL | – | – | – | – | –
2 | Nc1nc(=O)c2c([nH]1)NCC(CNc1ccc(C(=O)N[C@@H](CCC(=O)[O-])C(=O)[O-])cc1)N2C=O.[Ca+2] (mixture of isomers) [USP Leucovorin Calcium, racemic leucovorin calcium] | – | – | – | – | – | – | – | – | – | – | – | – | – | – | – | – | 13.4 mg/mL | 17.4 mg/mL | 4.2 mg/mL | 7.2 mg/mL | Assay (concentration of dissolved compound) ([5]; H2O, 2 hrs): 3.6 mg/mL; Assay (concentration of dissolved compound) ([5]; H2O, 15 hrs): 3.8 mg/mL; Assay (concentration of dissolved compound) ([5]; NaCl (0.83%), 2 hrs): 8.4 mg/mL; Assay (concentration of dissolved compound) ([5]; NaCl (0.83%), 15 hrs): 8.6 mg/mL; Assay (concentration of dissolved compound) ([6]; H2O, 2 hrs): 10.1 mg/mL; Assay (concentration of dissolved compound) ([6]; H2O, 20 hrs): 10.8 mg/mL; Assay (concentration of dissolved compound) ([6]; NaCl (0.83%), 2 hrs): 16.1 mg/mL; Assay (concentration of dissolved compound) ([6]; NaCl (0.83%), 20 hrs): 17.1 mg/mL
3 | Nc1nc(=O)c2c([nH]1)NCC(CNc1ccc(C(=O)NC(CCC(=O)O)C(=O)O)cc1)N2C=O [L-Leucovorin, L-leucovorin calcium] | 7.5 mg/mL | 8.4 mg/mL | 8.0 mg/mL | 11.9 mg/mL | 9.6 mg/mL | 10.0 mg/mL | 13.4 mg/mL | 17.4 mg/mL | 14.9 mg/mL | 15.1 mg/mL | 16.1 mg/mL | 23.6 mg/mL | 20.2 mg/mL | 20.4 mg/mL | 21.6 mg/mL | 32.4 mg/mL | 31.1 mg/mL | 42.1 mg/mL | 26.2 mg/mL | 39.6 mg/mL | Assay (concentration of dissolved compound) ([3]; H2O, 2 hrs): 31.9 mg/mL; Assay (concentration of dissolved compound) ([3]; NaCl (0.83%), 2 hrs): 42.3 mg/mL; Assay (concentration of dissolved compound) ([4]; H2O, 2 hrs): 31.9 mg/mL; Assay (concentration of dissolved compound) ([4]; NaCl (0.83%), 2 hrs): 42.3 mg/mL; Assay (concentration of dissolved compound) ([5]; H2O, 2 hrs): 40.4 mg/mL; Assay (concentration of dissolved compound) ([5]; H2O, 15 hrs): 21.2 mg/mL; Assay (concentration of dissolved compound) ([5]; NaCl (0.83%), 2 hrs): 49.2 mg/mL; Assay (concentration of dissolved compound) ([5]; NaCl (0.83%), 15 hrs): 35.6 mg/mL; Assay (concentration of dissolved compound) ([6]; H2O, 2 hrs): 40.4 mg/mL; Assay (concentration of dissolved compound) ([6]; H2O, 20 hrs): 42.3 mg/mL; Assay (concentration of dissolved compound) ([6]; NaCl (0.83%), 2 hrs): 49.2 mg/mL; Assay (concentration of dissolved compound) ([6]; NaCl (0.83%), 20 hrs): 53.1 mg/mL
